Source: ChEMBL document CHEMBL1127540, “Three-dimensional pharmacophores from binding data” (J Med Chem, 1994)
Starred links: 1 amine or outer side, 2 acyl side, 3 side chain; linkers in the order of their positions; H or OH if unused. Non-standard residues stand in square brackets, D forms with d. Residues, ends and D or L forms follow the SMILES beside them. *: point of attachment. Hexanoyl(5S-NH,4S-OH,6-Ph) = O=C(CC[C@H](O)[C@H](Cc1ccccc1)N[*:1])[*:2]; X3 = O=C([C@@H]1CCC[C@@H]1[C@H](O)[C@H](Cc1ccccc1)N[*:1])[*:2]; PheΨ(PO2HCH2)Gly = O=C(CCP(=O)(O)[C@H](Cc1ccccc1)N[*:1])[*:2]; X5 = O=C([C@H]1CCCN1C[C@H](O)[C@H](Cc1ccccc1)N[*:1])[*:2]; Ahppa(3S,4S) = O=C(C[C@H](O)[C@H](Cc1ccccc1)N[*:1])[*:2]; X2 = CC(C)C[C@H](N[*:1])[C@@H](O)CN1CCC[C@@H]1C(=O)[*:2]; X10 = O=C([C@H]1CCCN1C[C@H](Cc1ccc(O)cc1)N[*:1])[*:2]; X1 = O=C(C[C@H](O)[C@H](Cc1ccc(O)cc1)N[*:1])[*:2]; X4 = O=C([C@H](Cc1ccccc1)N[*:1])C(F)(F)C(=O)[*:2]; X8 = O=C([C@H]1CCCN1C[C@H](Cc1ccccc1)N[*:1])[*:2]; X6 = O=C(CC[C@@H](O)[C@H](Cc1ccccc1)N[*:1])[*:2]; X7 = NC(=O)C[C@H](N[*:1])[C@@H](O)CC(=O)[*:2]; Sta = CC(C)C[C@H](N)[C@@H](O)CC(=O)O; Cbz = O=C(OCc1ccccc1)*; Boc = CC(C)(C)OC(=O)*; Lac = C[C@H](O)C(=O)O

What follows are compounds tested against Human immunodeficiency virus type 1 protease (Human immunodeficiency virus 1, UniProt Q72874) (assay: Binding affinity to HIV-1 protease).

Row | Compound | Ki [nM]
1 | COC(=O)[C@@H](NC(=O)[C@@H](NC(=O)[C@@H]1CCC[C@@H]1[C@H](O)[C@H](Cc1ccccc1)NC(=O)[C@H](C)NC(=O)[C@H](C)NC(=O)[C@@H](N)CO)C(C)C)C(C)C (H-SAA[X3]VV-OMe) | 501
2 | COC(=O)[C@@H](NC(=O)[C@@H](NC(=O)CC[C@H](O)[C@H](Cc1ccccc1)NC(=O)[C@H](C)NC(=O)[C@H](C)N)C(C)C)C(C)C (H-AA[Hexanoyl(5S-NH,4S-OH,6-Ph)]VV-OMe) | 18.2
3 | CC(=O)N[C@@H](CO)C(=O)N[C@@H](CCC(N)=O)C(=O)N[C@@H](CC(N)=O)C(=O)N[C@@H](Cc1ccc(O)cc1)CN1CCC[C@@H]1C(=O)N[C@H](C(=O)N[C@H](C(N)=O)C(C)C)C(C)C (Ac-SQN[X10]VV-NH2) | 12900
4 | CC[C@H](C)[C@H](NC(=O)[C@H]1CCCN1C[C@H](O)[C@H](CC(C)C)NC(=O)[C@H](CC(N)=O)NC(=O)[C@H](CC(C)C)NC(=O)[C@H](CO)NC(C)=O)C(=O)N[C@H](C(=O)OC)C(C)C (Ac-SLN[X2]IV-OMe) | 11
5 | CC[C@H](C)[C@H](NC(=O)[C@H](C(C)C)[C@@H](O)[C@H](O)[C@H](CC(C)C)NC(=O)OCc1ccccc1)C(=O)NCc1ccccn1 | 5.01
6 | CC(C)(C)OC(=O)N[C@@H](Cc1ccccc1)[C@@H](O)CC(Cc1ccc(OCC(=O)O)cc1)C(=O)N[C@@H]1c2ccccc2C[C@H]1O (some centres undefined) | 0.339
7 | CC(C)[C@H](NC(=O)OCc1ccccc1)C(=O)N[C@@H](Cc1ccccc1)[C@H](O)[C@@H](O)[C@H](Cc1ccccc1)NC(=O)[C@@H](NC(=O)OCc1ccccc1)C(C)C | 0.38
8 | CC[C@H](C)[C@H](NC(=O)OCc1ccccc1)C(=O)N[C@@H](Cc1ccccc1)[C@@H](O)[C@@H](CC(=O)[C@H](NC(=O)OCc1ccccc1)[C@@H](C)CC)Cc1ccccc1 | 4.9
9 | CC[C@H](C)[C@H](NC(=O)[C@H]1CCCN1C[C@H](O)[C@H](CC(C)C)NC(=O)[C@H](CC(N)=O)NC(=O)[C@H](CC(C)C)NC(=O)[C@H](CO)NC(C)=O)C(=O)OC (Ac-SLN[X2]I-OMe) | 977
10 | CCC(C)CNC(=O)[C@H](C(C)C)[C@@H](O)[C@H](O)[C@H](CC(C)C)NC(=O)[C@H](Cc1c[nH]cn1)NC(=O)[C@H](Cc1ccccc1)NC(=O)OC(C)(C)C (some centres undefined) | 363
11 | CC(C)[C@H](NC(=O)OCc1ccccc1)C(=O)N[C@@H](Cc1ccccc1)[C@@H](O)[C@@H](CC(=O)[C@H](NC(=O)OCc1ccccc1)C(C)C)Cc1ccccc1 | 3.72
12 | CC[C@H](C)[C@H](NC(=O)[C@H]1CCCN1C[C@H](O)[C@H](CC(C)C)NC(=O)[C@H](CC(N)=O)NC(=O)[C@H](CC(C)C)NC(C)=O)C(=O)N[C@H](C(=O)OC)C(C)C (Ac-LN[X2]IV-OMe) | 20.9
13 | CC(C)[C@H](NC(=O)NCc1ccccn1)C(=O)N[C@@H](Cc1ccccc1)C(=O)C(F)(F)CCc1ccccc1 | 2.88
14 | CC(C)C[C@H](NC(=O)[C@H](C)NC(=O)C[C@H](O)[C@H](CC(C)C)NC(=O)[C@@H](NC(=O)[C@@H](NC(=O)[C@H](C)O)C(C)C)C(C)C)[C@@H](O)CC(=O)O (H-[Lac]VV[Sta]A[Sta]-OH) | 19100
15 | CC(C)(C)OC(=O)N[C@@H](Cc1ccccc1)[C@H](O)[C@@H](O)[C@H](Cc1ccccc1)NC(=O)OC(C)(C)C | 282
16 | CC(=O)N[C@@H](CO)C(=O)N[C@@H](C)C(=O)N[C@@H](C)C(=O)N[C@@H](Cc1ccccc1)CN1CCC[C@@H]1C(=O)N[C@H](C(=O)N[C@H](C(N)=O)C(C)C)C(C)C (Ac-SAA[X8]VV-NH2) | 38000
17 | CC(=O)N[C@H](C(=O)C[C@@H](Cc1ccccc1)[C@H](O)[C@H](Cc1ccccc1)NC(=O)[C@@H](NC(C)=O)C(C)C)C(C)C | 12
18 | COC(=O)[C@@H](NC(=O)[C@@H](NC(=O)C[C@H](O)[C@H](Cc1ccccc1)NC(=O)[C@H](C)NC(=O)[C@H](C)NC(=O)[C@@H](N)CO)C(C)C)C(C)C (H-SAA[Ahppa(3S,4S)]VV-OMe) | 813
19 | CC(C)(C)OC(=O)N[C@@H](Cc1ccccc1)[C@H](O)[C@H](O)[C@H](Cc1ccccc1)NC(=O)OC(C)(C)C | 12
20 | COC(=O)[C@@H](NC(=O)[C@@H](NC(=O)CC[C@H](O)[C@H](Cc1ccccc1)NC(=O)[C@H](C)NC(=O)[C@H](C)NC(=O)[C@@H](N)CO)C(C)C)C(C)C (H-SAA[Hexanoyl(5S-NH,4S-OH,6-Ph)]VV-OMe) | 61.7
21 | CC(C)CC(=O)N[C@H](C(=O)N[C@H](C(=O)N[C@@H](CC(C)C)[C@@H](O)CC(=O)N[C@@H](C)C(=O)N[C@@H](CC(C)C)[C@@H](O)CC(=O)O)C(C)C)C(C)C [PEPSTATIN] | 17
22 | COC(=O)[C@@H](NC(=O)[C@@H](NC(=O)CC[C@H](O)[C@H](Cc1ccccc1)NC(=O)[C@H](Cc1ccccc1)NC(=O)[C@H](C)NC(=O)[C@H](C)NC(=O)OCc1ccccc1)C(C)C)C(C)C (Cbz-AAF[Hexanoyl(5S-NH,4S-OH,6-Ph)]VV-OMe) | 47.9
23 | CC(C)(C)OC(=O)N[C@@H](Cc1ccccc1)[C@@H](O)[C@H](O)[C@H](Cc1ccccc1)NC(=O)OC(C)(C)C | 39.8
24 | CC[C@H](C)[C@H](NC(=O)[C@H]1CCCN1C[C@H](O)[C@H](Cc1ccccc1)NC(=O)[C@H](CC(N)=O)NC(=O)[C@H](CC(C)C)NC(=O)[C@H](CO)NC(C)=O)C(=O)OC (Ac-SLN[X5]I-OMe) | 417
25 | COC(=O)[C@@H](NC(=O)[C@@H](NC(=O)C[C@H](O)[C@H](Cc1ccccc1)NC(=O)[C@H](C)NC(=O)[C@H](C)NC(=O)[C@H](CO)NC(=O)OC(C)(C)C)C(C)C)C(C)C (Boc-SAA[Ahppa(3S,4S)]VV-OMe) | 1200

Row | Compound | Ki [nM]
26 | CC(C)(C)OC(=O)N[C@@H](Cc1ccccc1)[C@@H](O)C(=O)N[C@@H](CCC(=O)O)C(=O)N[C@@H](Cc1ccccc1)C(=O)O (stereo in doubt; 76) | 24000
27 | CC(=O)N[C@H](C(=O)N[C@H](C(=O)C[C@@H](Cc1ccccc1)[C@H](O)[C@H](Cc1ccccc1)NC(=O)[C@@H](NC(=O)[C@@H](NC(C)=O)C(C)C)C(C)C)C(C)C)C(C)C | 10
28 | CC(C)(C)OC(=O)N[C@@H](Cc1ccccc1)[C@H](O)C(=O)N[C@@H](CCC(=O)O)C(=O)N[C@@H](Cc1ccccc1)C(=O)O | 3310
29 | CC(C)(C)OC(=O)N[C@H](Cc1ccccc1)[C@@H](O)CC(=O)N[C@@H](CCC(=O)O)C(=O)N[C@@H](Cc1ccccc1)C(=O)O | 7080
30 | CC(C)(C)OC(=O)N[C@@H](Cc1ccccc1)[C@H](O)CC(=O)N[C@@H](CCC(=O)O)C(=O)N[C@@H](Cc1ccccc1)C(=O)O | 3980
31 | COC(=O)[C@@H](NC(=O)[C@@H](NC(=O)C[C@H](O)[C@H](Cc1ccc(O)cc1)NC(=O)[C@H](C)NC(=O)[C@H](C)NC(=O)[C@H](CO)NC(=O)OC(C)(C)C)C(C)C)C(C)C (Boc-SAA[X1]VV-OMe) | 182
32 | CC[C@H](C)[C@H](NC(=O)[C@@H](C[C@H](O)C(CC1CCCCC1)NC(=O)[C@@H](N)C(C)C)C(C)C)C(=O)NCc1ccccn1 (some centres undefined) | 70.8
33 | CC[C@H](C)[C@H](NC(=O)[C@H](C(C)C)[C@@H](O)[C@H](O)[C@H](CC(C)C)NC(=O)[C@H](Cc1c[nH]cn1)NC(=O)[C@H](Cc1ccccc1)NC(=O)OC(C)(C)C)C(=O)NCc1ccccn1 | 28.2
34 | CC[C@H](C)[C@H](NC(=O)[C@H](C(C)C)[C@H](O)[C@H](O)[C@H](CC(C)C)NC(=O)[C@H](Cc1c[nH]cn1)NC(=O)[C@H](Cc1ccccc1)NC(=O)OC(C)(C)C)C(=O)NCc1ccccn1 | 501
35 | CC(C)[C@H](NC(=O)OCc1ccccc1)C(=O)N[C@@H](Cc1ccccc1)[C@H](O)[C@H](O)[C@H](Cc1ccccc1)NC(=O)[C@@H](NC(=O)OCc1ccccc1)C(C)C | 0.219
36 | COC(=O)[C@@H](NC(=O)[C@@H](NC(=O)CC[C@H](O)[C@H](Cc1ccccc1)NC(=O)[C@H](C)NC(=O)OCc1ccccc1)C(C)C)C(C)C | 120
37 | COC(=O)[C@@H](NC(=O)[C@@H](NC(=O)CCP(=O)(O)[C@H](Cc1ccccc1)NC(=O)[C@H](C)NC(=O)[C@H](C)NC(=O)[C@@H](N)CO)C(C)C)C(C)C (H-SAA[PheΨ(PO2HCH2)Gly]VV-OMe) | 4370
38 | NC(=O)C[C@H](NC(=O)OCc1ccccc1)C(=O)N[C@@H](Cc1ccccc1)C(=O)C(F)(F)CCc1ccccc1 | 2.09
39 | CC(=O)N[C@@H](CO)C(=O)N[C@@H](CCC(N)=O)C(=O)N[C@@H](CC(N)=O)C(=O)N[C@@H](Cc1ccccc1)CN1CCC[C@@H]1C(=O)N[C@H](C(=O)N[C@H](C(N)=O)C(C)C)C(C)C (stereo in doubt; 71) | 14100
40 | CC[C@H](C)[C@H](NC(=O)C[C@H](O)[C@H](CC(N)=O)NC(=O)[C@H](CCC(N)=O)NC(=O)[C@H](CO)NC(=O)[C@@H](N)C(C)C)C(=O)N[C@H](C(=O)O)C(C)C (H-VSQ[X7]IV-OH) | 3720
41 | CC(C)(C)OC(=O)N[C@@H](Cc1ccccc1)[C@@H](O)CC(=O)N[C@@H](CCC(=O)O)C(=O)N[C@@H](Cc1ccccc1)C(=O)O | 63.1
42 | CC(C)[C@H](NC(=O)[C@@H](NC(=O)C1CCCN1C[C@H](Cc1ccccc1)NC(=O)[C@H](C)NC(=O)[C@H](C)NC(=O)[C@@H](N)CO)C(C)C)C(N)=O (single isomer, unassigned) | 18200
43 | COC(=O)[C@@H](NC(=O)[C@@H](NC(=O)C(F)(F)C(=O)[C@H](Cc1ccccc1)NC(=O)[C@H](C)NC(=O)[C@H](C)NC(=O)[C@H](CO)NC(=O)OC(C)(C)C)C(C)C)C(C)C (Boc-SAA[X4]VV-OMe) | 158
44 | CC[C@H](C)[C@H](NC(=O)[C@H]1CCCN1C[C@H](O)[C@H](Cc1ccccc1)NC(=O)[C@H](CC(N)=O)NC(=O)[C@H](CC(C)C)NC(=O)[C@H](CO)NC(C)=O)C(=O)N[C@H](C(=O)OC)C(C)C (Ac-SLN[X5]IV-OMe) | 0.24
45 | CC[C@H](C)[C@H](NC(=O)[C@H](Cc1ccccc1)NC(=O)C[C@H](O)[C@H](Cc1ccccc1)NC(=O)OC(C)(C)C)C(=O)N[C@@H](Cc1ccccc1)C(=O)OC | 0.603
46 | COC(=O)[C@@H](NC(=O)[C@@H](NC(=O)CC[C@@H](O)[C@H](Cc1ccccc1)NC(=O)[C@H](C)NC(=O)[C@H](C)NC(=O)[C@@H](N)CO)C(C)C)C(C)C (H-SAA[X6]VV-OMe) | 4900
47 | CC(C)[C@H](NC(=O)OCc1ccccc1)C(=O)N[C@@H](Cc1ccccc1)C(=O)C(F)(F)CCc1ccccn1 | 1.41
48 | CC(C)[C@H](NC(=O)OCc1ccccc1)C(=O)N[C@@H](Cc1ccccc1)C(=O)C(F)(F)CCc1ccccc1 (stereo in doubt; 12) | 2.69
49 | CC(C)[C@H](NC(=O)OCc1ccccc1)C(=O)N[C@@H](Cc1ccccc1)C(=O)C(F)(F)CCc1ccccc1 (stereo in doubt; 17) | 5.01
